According to patent publication US12492173B2, “Herbicidal substituted N-tetrazolyl aryl carboxamides” (Bayer Aktiengesellschaft, priority 2019, dated 2025):

How the values were obtained:
Type in all cases: in vivo
Pharbitis purpurea = test: Pre-emergence herbicidal action, PHBPU; settings: dosage 320 g/ha, scored visually after 3 weeks vs untreated controls (100% = plants have died)
Summary of the method: (§1)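 Pre-emergence soil spray over sandy loam-covered seeds; greenhouse 3 weeks; % visual damage (0% = control, 100% = dead).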

Abutilon theophrasti [1] = test: Post-emergence herbicidal action, ABUTH; set-up: key: % herbicidal action vs untreated; 100 = plants died, 0 = like control
Summary of the method: (§2)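 Sandy loam, greenhouse; one-leaf stage (2–3 wk after sowing); foliar spray of WP or EC, 600–800 l/ha water + 0.2% wetter; visual rating at ~3 wk vs untreated, % effect.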

Echinochloa crus-galli = test: Post-emergence herbicidal action, ECHCG; set-up: key: % herbicidal action vs untreated; 100 = plants died, 0 = like control
Summary of the method: as §2

Veronica persica = test: Post-emergence herbicidal action, VERPE; set-up: key: % herbicidal action vs untreated; 100 = plants died, 0 = like control
Summary of the method: as §2

Viola tricolor = test: Post-emergence herbicidal action, VIOTR; set-up: key: % herbicidal action vs untreated; 100 = plants died, 0 = like control
Summary of the method: as §2

Abutilon theophrasti [2] = test: Pre-emergence herbicidal action, ABUTH; settings: dosage 320 g/ha, scored visually after 3 weeks vs untreated controls (100% = plants have died)
Summary of the method: as §1

Alopecurus myosuroides = test: Post-emergence herbicidal action, ALOMY; set-up: key: % herbicidal action vs untreated; 100 = plants died, 0 = like control
Summary of the method: as §2

Row | Compound | herbicidal activity PHBPU (Pharbitis purpurea) [%] | herbicidal action ABUTH (Abutilon theophrasti [1]; post-emergence, dosage 80 g/ha) [%] | herbicidal action ECHCG (Echinochloa crus-galli; post-emergence, dosage 80 g/ha) [%] | herbicidal action VERPE (Veronica persica; post-emergence, dosage 80 g/ha) [%] | herbicidal action VIOTR (Viola tricolor; post-emergence, dosage 80 g/ha) [%] | herbicidal activity ABUTH (Abutilon theophrasti [2]) [%] | herbicidal action ALOMY (Alopecurus myosuroides; post-emergence, dosage 80 g/ha) [%] | herbicidal action ABUTH (Abutilon theophrasti [1]; Dosage 80 g/ha) | herbicidal action ECHCG (Echinochloa crus-galli; Dosage 80 g/ha) | herbicidal action VERPE (Veronica persica; Dosage 80 g/ha) | herbicidal action VIOTR (Viola tricolor; Dosage 80 g/ha) | herbicidal action ALOMY (Alopecurus myosuroides; Dosage 80 g/ha)
1 | COCCSCc1c(C(F)(F)F)ccc(C(=O)Nc2nnnn2C)c1Cl [Example 1-305] | 90 | 100 | 100 | 90 | 100 | 100 | 100 |  |  |  |  | 
2 | CCn1nnnc1NC(=O)c1ccc(C(F)(F)F)c(C[S+](C)[O-])c1SC (centres unmarked) [Example 2-162] | 90 |  |  |  |  | 100 |  | 100 | 90 | 90 | 100 | 90
3 | CCCn1nnnc1NC(=O)c1ccc(C(F)(F)F)c(CSCC2CC2)c1Cl [Example 3-314] | 80 | 100 | 100 | 100 | 100 | 100 | 100 |  |  |  |  | 
4 | CSCc1c(C(F)(F)F)ccc(C(=O)Nc2nnnn2C)c1C [Example 1-83] | 80 | 90 | 90 | 100 | 90 | 100 | 80 |  |  |  |  | 
5 | Cn1nnnc1NC(=O)c1ccc(C(F)(F)F)c(CSCC2CC2)c1Cl [Example 1-314] | 90 | 100 | 100 | 100 | 100 | 100 | 100 |  |  |  |  | 
